The source of these data is Sander's compilation of Henry's law constants (doi:10.1016/j.ijggc.2017.01.001).

This data set can be described thus: Henry solubility constant Hcp at 313 K (mol/(m3 Pa)). To be noted: reference: Du et al. (2017).
For `Cc1nccn1C` [1,2-dimethylimidazole], the “Henry solubility constant Hcp at 313 K” value is 43.

For the compound `OCCN1CCCCC1` [1-(2-hydroxyethyl)piperidine], the “Henry solubility constant Hcp at 313 K” value was determined as 51.

As for `Cn1ccnc1` [1-methyl-1H-imidazole], the “Henry solubility constant Hcp at 313 K” value worked out at 69.

In the case of `CCN(CC)CCO` [2-(diethylamino)ethanol], the “Henry solubility constant Hcp at 313 K” value is 5.9.

With `CC(C)NCCO` [2-(isopropylamino)ethanol], the “Henry solubility constant Hcp at 313 K” value came to 110.

In the case of `CCC(N)(CO)CO` [2-amino-2-ethyl-1,3-propanediol], the “Henry solubility constant Hcp at 313 K” value is 710.

Consider `CC(C)(N)CO` [2-amino-2-methyl-1-propanol], for which the “Henry solubility constant Hcp at 313 K” value came out at 210.

Consider `CCc1ncc(C)[nH]1` [2-ethyl-4-methylimidazole], for which the “Henry solubility constant Hcp at 313 K” value came to 280.

For the compound `CCc1ncc[nH]1` [2-ethylimidazole], the “Henry solubility constant Hcp at 313 K” value was determined as 760.

As for `Cc1ncc[nH]1` [2-methyl-1H-imidazole], the “Henry solubility constant Hcp at 313 K” value is 810.

Regarding `OCCC1CCCCN1` (stereo not given) [2-piperidineethanol], the “Henry solubility constant Hcp at 313 K” value was found to be 390.

For `NCc1cccnc1` [3-(aminomethyl)pyridine], the “Henry solubility constant Hcp at 313 K” value came to 430.

In the case of `CCN(CC)CC(O)CO` (stereo not given) [3-(diethylamino)-1,2-propanediol], the “Henry solubility constant Hcp at 313 K” value stood at 540.

Turning to `CN(C)CC(O)CO` (stereo not given) [3-(dimethylamino)-1,2-propanediol], the “Henry solubility constant Hcp at 313 K” value is 670.

Take `COCCCN` [3-methoxy-1-propanamine]: the “Henry solubility constant Hcp at 313 K” value amounted to 21.

With `CN1CCC(O)CC1` [4-hydroxy-N-methylpiperidine], the “Henry solubility constant Hcp at 313 K” value turned out to be 1300.

As to `CN(CCO)CCO` [N-methyldiethanolamine], the “Henry solubility constant Hcp at 313 K” value is 3300.

For the compound `COCCNCCOC` [bis(2-methoxyethyl)amine], the “Henry solubility constant Hcp at 313 K” value is 110.

In the case of `CN(C)CCOCCO` [dimethylaminoethoxyethanol], the “Henry solubility constant Hcp at 313 K” value is 830.

As for `CN1C2CCC1CC(O)C2` (stereo not given) [tropine], the “Henry solubility constant Hcp at 313 K” value worked out at 1300.
